The subject of this test is L1210 leukemia ip in BDF1 mice, survival T/C. The experiment in a line: NCI In Vivo Anticancer Drug Screen. Data for tumor model L1210 Leukemia (intraperitoneal) in B6D2F1 (BDF1) mice. Particulars: endpoint: mean survival time, higher = longer survival. The essentials:
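Ratio derived from survival: compound-dosed mice over vehicle-dosed mice, all bearing a transplantable tumor.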

Setting [1] is: dose: 100.0 mg/kg/injection, schedule: Q01DX001 (ip), vehicle: saline.
Where [2] appears, read: dose: 200.0 mg/kg/injection, schedule: Q01DX001 (ip), vehicle: saline.
Setting [3] is: dose: 400.0 mg/kg/injection, schedule: Q01DX001 (ip), vehicle: saline.
Where [4] appears, read: dose: 75.0 mg/kg/injection, schedule: Q01DX001 (ip), vehicle: saline.
Where [5] appears, read: dose: 300.0 mg/kg/injection, schedule: Q01DX001 (ip), vehicle: saline.
Setting [6] is: dose: 100.0 mg/kg/injection, schedule: Q01DX009 (ip), vehicle: saline with Tween-80.
Where [7] appears, read: dose: 200.0 mg/kg/injection, schedule: Q01DX009 (ip), vehicle: saline with Tween-80.
The mark [8] stands for this setting: dose: 400.0 mg/kg/injection, schedule: Q01DX009 (ip), vehicle: saline with Tween-80.
Setting [9] is: dose: 100.0 mg/kg/injection, schedule: Q01DX001 (ip), vehicle: saline with Tween-80.
Setting [10] is: dose: 200.0 mg/kg/injection, schedule: Q01DX001 (ip), vehicle: saline with Tween-80.
[11] abbreviates: dose: 100.0 mg/kg/injection, schedule: Q04DX003 (ip), vehicle: Klucel (hydroxypropylcellulose) (HPC).
Where [12] appears, read: dose: 200.0 mg/kg/injection, schedule: Q04DX003 (ip), vehicle: Klucel (hydroxypropylcellulose) (HPC).
The mark [13] stands for this setting: dose: 75.0 mg/kg/injection, schedule: Q01DX001 (ip), vehicle: other.
Setting [14] is: dose: 100.0 mg/kg/injection, schedule: Q04DX002 (ip), vehicle: saline with Tween-80.
[15] abbreviates: dose: 200.0 mg/kg/injection, schedule: Q04DX002 (ip), vehicle: saline with Tween-80.

The source of these data is PubChem BioAssay AID248 (DTP/NCI, 2004).

Toxic doses and inconclusive results are not listed.

`O=[N+]([O-])c1ccc2c3c(cccc13)CC2`: the T/C is 102 % of control under setting [1], 96 % of control under setting [2] and 90 % of control under setting [3].

As for `Nc1ncnc2nc(-c3ccc(Cl)c(Cl)c3)[nH]c12`, the T/C is, setting by setting: (dose: 37.5 mg/kg/injection, schedule: Q01DX001 (ip), vehicle: saline with Tween-80) 93 % of control; (dose: 75.0 mg/kg/injection, schedule: Q01DX001 (ip), vehicle: saline with Tween-80) 87 % of control; (dose: 150.0 mg/kg/injection, schedule: Q01DX001 (ip), vehicle: saline with Tween-80) 87 % of control.

Regarding `Cc1ccc(S(=O)(O)=S)cc1.[Fe]`, the T/C by setting is: under setting [4], 88 % of control; under setting [5], 86 % of control.

With `Cc1cc(N(CCCOS(C)(=O)=O)CCCOS(C)(=O)=O)ccc1C=Nc1cccc(Br)c1`, the T/C under setting [6] is 96 % of control, the T/C under setting [7] was 94 % of control and the T/C under setting [8] is 91 % of control.

With `O=C(Nc1ccc(S(=O)(=O)Nc2ccc(N=Nc3ccccc3)cc2)cc1)C(SC1=NC=NC2=NC=NC21)(SC1=NC=NC2=NC=NC21)SC1=NC=NC2=NC=NC21` (stereo unspecified), the T/C is 104 % of control (dose: 75.0 mg/kg/injection, schedule: Q04DX003 (ip), vehicle: saline); 109 % of control (dose: 150.0 mg/kg/injection, schedule: Q04DX003 (ip), vehicle: saline); 100 % of control (dose: 300.0 mg/kg/injection, schedule: Q04DX003 (ip), vehicle: saline).

Consider `CCN(CC)CCC(O)c1ccc2c(c1)[nH]c1ccccc12` (stereo unspecified), for which the T/C by setting is: (dose: 75.0 mg/kg/injection, schedule: Q01DX001 (ip), vehicle: carboxymethylcellulose (CMC)) 97 % of control; (dose: 150.0 mg/kg/injection, schedule: Q01DX001 (ip), vehicle: carboxymethylcellulose (CMC)) 103 % of control.

With `CCOC(=O)Nc1cc(NCCCCc2ccccc2)c(N)c(N)n1`, the T/C is, setting by setting: under setting [9], 101 % of control; under setting [10], 102 % of control.

For the compound `CCCCCCCCCCCCCCCCNC(=O)c1cc([N+](=O)[O-])ccc1C(=O)O`, the T/C under setting [11] is 95 % of control; the T/C under setting [12] was 95 % of control; the T/C (dose: 400.0 mg/kg/injection, schedule: Q04DX003 (ip), vehicle: Klucel (hydroxypropylcellulose) (HPC)) is 97 % of control.

Take `Cc1cc(N)c(C(=O)NN)cc1C`: the T/C under setting [1] is 96 % of control, the T/C under setting [2] is 93 % of control and the T/C under setting [3] was 113 % of control.

In the case of `O=C(Nc1ccc(Cl)c(Cl)c1)c1ccc2c(c1)C(=O)OC2=O`, the T/C under setting [6] was 106 % of control, the T/C under setting [7] is 106 % of control and the T/C under setting [8] was 106 % of control.

As for `Cc1cc(C)c(C(=O)O)cc1C`, the T/C is 102 % of control under setting [4]; 94 % of control (dose: 150.0 mg/kg/injection, schedule: Q01DX001 (ip), vehicle: saline); 102 % of control under setting [5].

Regarding `CCCNC(=S)Nc1ccccc1`, the T/C reads like this: under setting [13], 101 % of control; (dose: 150.0 mg/kg/injection, schedule: Q01DX001 (ip), vehicle: other) 107 % of control.

As to `O=[N+]([O-])c1ccc(-n2cnnn2)cc1`, the T/C is 94 % of control (dose: 100.0 mg/kg/injection, schedule: Q01DX001 (ip), vehicle: carboxymethylcellulose (CMC)); 100 % of control (dose: 200.0 mg/kg/injection, schedule: Q01DX001 (ip), vehicle: carboxymethylcellulose (CMC)); 91 % of control (dose: 400.0 mg/kg/injection, schedule: Q01DX001 (ip), vehicle: carboxymethylcellulose (CMC)).

For `c1ccc2n[nH]nc2c1`, the T/C by setting is: (dose: 50.0 mg/kg/injection, schedule: Q04DX002 (ip), vehicle: saline with Tween-80) 95 % of control; under setting [14], 106 % of control; under setting [15], 98 % of control.

In the case of `CCCN(CCC)S(=O)(=O)CC`, the T/C is 99 % of control under setting [14]; 92 % of control under setting [15]; 99 % of control (dose: 400.0 mg/kg/injection, schedule: Q04DX002 (ip), vehicle: saline with Tween-80).

Turning to `Cc1ccc(CC#N)c(-c2c(CC#N)ccc(C)c2C)c1C`, the T/C is 87 % of control (dose: 100.0 mg/kg/injection, schedule: Q04DX002 (ip), vehicle: gum acacia); 93 % of control (dose: 200.0 mg/kg/injection, schedule: Q04DX002 (ip), vehicle: gum acacia); 93 % of control (dose: 400.0 mg/kg/injection, schedule: Q04DX002 (ip), vehicle: gum acacia).

In the case of `Cc1ccc(S(=O)(=O)OCCOCCOCCOCCOCCOCCOS(=O)(=O)c2ccc(C)cc2)cc1`, the T/C by setting is: (dose: 100.0 mg/kg/injection, schedule: Q01DX001 (ip), vehicle: other) 103 % of control; (dose: 200.0 mg/kg/injection, schedule: Q01DX001 (ip), vehicle: other) 98 % of control; (dose: 400.0 mg/kg/injection, schedule: Q01DX001 (ip), vehicle: other) 98 % of control.

Turning to `CC(=O)C1CCc2c(O)c3c(c(O)c2C1)C(=O)c1ccccc1C3=O` (stereo unspecified), the T/C runs as follows: (dose: 87.5 mg/kg/injection, schedule: Q04DX003 (ip), vehicle: saline with Tween-80) 94 % of control; (dose: 175.0 mg/kg/injection, schedule: Q04DX003 (ip), vehicle: saline with Tween-80) 91 % of control; (dose: 350.0 mg/kg/injection, schedule: Q04DX003 (ip), vehicle: saline with Tween-80) 94 % of control.

With `Nc1ccn(Cc2cccc3ccccc23)c(=O)n1`, the T/C by setting is: (dose: 100.0 mg/kg/injection, schedule: Q04DX003 (ip), vehicle: gum acacia) 93 % of control; (dose: 200.0 mg/kg/injection, schedule: Q04DX003 (ip), vehicle: gum acacia) 90 % of control; (dose: 400.0 mg/kg/injection, schedule: Q04DX003 (ip), vehicle: gum acacia) 90 % of control.

Turning to `COC(=O)/C=C(\C)Oc1cc(Cl)c(Cl)cc1Cl`, the T/C by setting is: under setting [6], 94 % of control; under setting [7], 97 % of control; under setting [8], 97 % of control.

With `O=C(CBr)c1ccc(S(=O)(=O)c2ccccc2)cc1`, the T/C (dose: 5.0 mg/kg/injection, schedule: Q01DX001 (ip), vehicle: carboxymethylcellulose (CMC)) was 93 % of control; the T/C (dose: 10.0 mg/kg/injection, schedule: Q01DX001 (ip), vehicle: carboxymethylcellulose (CMC)) is 93 % of control; the T/C (dose: 20.0 mg/kg/injection, schedule: Q01DX001 (ip), vehicle: carboxymethylcellulose (CMC)) was 95 % of control.

Take `COC1(OC)C(Cl)=C(Cl)C2C1C1(Cl)C(Cl)=C(Cl)C2(Cl)C1(OC)OC` (stereo unspecified): the T/C runs as follows: under setting [6], 98 % of control; under setting [7], 98 % of control; under setting [8], 96 % of control.

Regarding `Cc1cccc(C(=O)C(O)(c2ccccc2)C2CCCCC2=O)c1` (stereo unspecified), the T/C (dose: 100.0 mg/kg/injection, schedule: Q04DX002 (ip), vehicle: Klucel (hydroxypropylcellulose) (HPC)) was 100 % of control; the T/C (dose: 200.0 mg/kg/injection, schedule: Q04DX002 (ip), vehicle: Klucel (hydroxypropylcellulose) (HPC)) was 92 % of control; the T/C (dose: 400.0 mg/kg/injection, schedule: Q04DX002 (ip), vehicle: Klucel (hydroxypropylcellulose) (HPC)) is 114 % of control.

For the compound `ClC1=NC(c2ccccc2)N2C(Cl)C12` (stereo unspecified), the T/C by setting is: under setting [9], 103 % of control; under setting [6], 104 % of control; under setting [10], 95 % of control; under setting [7], 98 % of control; (dose: 400.0 mg/kg/injection, schedule: Q01DX001 (ip), vehicle: saline with Tween-80) 95 % of control; under setting [8], 104 % of control.

Consider `O=C1OCC2C1C1CCC2C1(Cl)Cl` (stereo unspecified), for which, under setting [13], the T/C is 98 % of control.

In the case of `COc1ccc(P(=NS(=O)(=O)c2ccc(C)cc2)(c2ccc(OC)cc2)c2ccc(OC)cc2)cc1`, the T/C runs as follows: under setting [11], 91 % of control; under setting [12], 96 % of control.

Take `CCCSc1ccccc1N1CCNCC1`: the T/C runs as follows: (dose: 50.0 mg/kg/injection, schedule: Q01DX001 (ip), vehicle: saline) 103 % of control; under setting [1], 101 % of control; under setting [2], 101 % of control; under setting [3], 103 % of control.

For the compound `CCCCCc1ccc(C)cc1OC(=O)CCl`, the T/C reads like this: (dose: 28.0 mg/kg/injection, schedule: Q01DX Z (ip), vehicle: methylcellulose (MC)) 97 % of control; (dose: 42.0 mg/kg/injection, schedule: Q01DX Z (ip), vehicle: methylcellulose (MC)) 97 % of control; (dose: 62.0 mg/kg/injection, schedule: Q01DX Z (ip), vehicle: methylcellulose (MC)) 92 % of control.
